Laboratory results taken from US20190328691A1, “ANTIBIOTIC THERAPY” (Boulos & Cooper Pharmaceuticals Pty Ltd, priority 2015, published 2019).
Like-named read-outs stand apart in the source and are kept apart here.

What was measured:
[1] = test system: Staphylococcus aureus (ATCC 29213); assay: Checkerboard combination / MIC assay with S. aureus ATCC 29213; assay type: cell-based; conditions: S. aureus ATCC 29213; for MIC: Staphylococcus aureus, read-out: MIC of antibiotic alone
Method: (§1) Colonies were suspended in PBS. The absorbance of each suspension was measured with a spectrophotometer, and then the suspension was adjusted to 1×10^6 CFU/mL. The testing inoculum was prepared within 20 minutes before adding to wells of the test plate. Final cellular density in the checkerboard assays was 5×10^5 CFU/mL.
(§2) The combination effect of antibacterial substances administered together was evaluated by an in vitro checkerboard combination method with Staphylococcus aureus (ATCC 29213) and Staphylococcus aureus (BAA-1717). Ramizol and Chlopam were tested alone in 11 points by two-fold serial titration and in combination with different commercial antibiotics which were tested in a 7-point titration alone and in combination with Ramizol and Chlopam using the checkerboard technique as recommended by the Clinical & Laboratory Standards Institute (CLSI. Methods for Dilution In Antimicrobial Susceptibility Tests for Bacteria That Grow Aerobically; Approved Standard-Eighth Edition. CLSI document M07-A8 (ISBN 1-56238-689-1). Vol. 29 No. 2. Clinical and Laboratory Standards Institute, USA, 2009). The commercial antibiotics were also tested alone. Twenty-four checkerboard tests were performed.
(§3) The starting concentration of Ramizol, Chlopam, and the commercial antibiotics was four fold of the MIC. The testing range for each combination was described in the following summary tables.
(§4) Compound dilutions of Ramizol and Chlopam were performed in 100% DMSO and the final DMSO concentration in all test wells was 2%. Growth control wells also included 2% DMSO. CLSI protocol was followed for medium, inoculum preparation, and endpoint reading. The commercial antibiotics were dissolved and diluted in the CLSI specified diluent. The final inoculum count for each strain was 5×10^5 CFU/mL.
Cefepime, Daptomycin, Linezolid, Mupirocin, Oxacillin and Vancomycin were also tested alone. Each test substance was dissolved and diluted in 100% DMSO or specified solvent. Each test substance dilution (2 μL) was added to 96 μL broth CAMHB. CAMHB seeded with S. aureus ATCC 29213 at 1×10^6 CFU/mL (100 μL) was then added to the plate to generate a final cell count at 5×10^5 CFU/mL.
(§5) Assay plates were incubated and MIC endpoints were read as described in the MIC assay. FIC (Fraction Inhibitory Concentration) and FIC Index (FICI) values for each test condition and the average of FICI values of all pairwise combinations were calculated to determine if synergy or antagonism existed between the two substances. The FIC index was determined by calculating the sum of the ratios of MICs for both substances. Arithmetically, the FIC Index of a combination of Substance 1 and Substance 2 was defined as following: FICI=Σ[FIC(Substance 1)+FIC(Substance 2)]=[(MIC of Substance 1 in combination/MIC of Substance 1 alone)+(MIC of Substance 2 in combination/MIC of Substance 2 alone)]. Synergy is defined as the FICI (Σ)≤0.5; additivity as FICI (Σ)>0.5 to ≤1; indifference as FICI (Σ)>1 to ≤4; antagonism is defined as the FICI (Σ)>4 (Zinner and Blaser, J. Journal of Antimicrobial Chemotherapy (1986), 17, 1-5; Amin, et al BMC Complementary & Alternative Medicine (2015), 15, 59; Zuo, et al. Molecules (2011), 16, 9819-9826).

[2] = test system: Staphylococcus aureus (BAA-1717); assay: Checkerboard combination / MIC assay with S. aureus BAA-1717 (MRSA); assay type: cell-based; conditions: for Effect of individual antibiotic combinations: S. aureus BAA-1717
Method: as §1, §2, §3, §4
Each test substance was dissolved and diluted in 100% DMSO or specified solvent. Each test substance dilution (2 μL) was added to 96 μL broth CAMHB. CAMHB seeded with S. aureus BAA-1717 at 1×10^6 CFU/mL (100 μL) was then added to the plate to generate a final cell count at 5×10^5 CFU/mL.
as §5

SMILES: CCCCCCCCCC(=O)N[C@@H](Cc1c[nH]c2ccccc12)C(=O)N[C@H](CC(N)=O)C(=O)N[C@@H](CC(=O)O)C(=O)N[C@@H]1C(=O)NCC(=O)N[C@@H](CCCN)C(=O)N[C@@H](CC(=O)O)C(=O)N[C@H](C)C(=O)N[C@@H](CC(=O)O)C(=O)NCC(=O)N[C@H](CO)C(=O)N[C@@H]([C@H](C)CC(=O)O)C(=O)N[C@@H](CC(=O)c2ccccc2N)C(=O)O[C@@H]1C [Daptomycin]
- FICI of combination with Chlopam ([1]; Chlopam 0.003906 μg/mL + labelled antibiotic at MIC of same cell): 1.0
- MIC of antibiotic in combination with Chlopam ([1]; Chlopam 0.003906 μg/mL): 0.5 µg/mL
- FICI of combination with Chlopam ([1]; Chlopam 0.0078125 μg/mL + labelled antibiotic at MIC of same cell): 1.0
- MIC of antibiotic in combination with Chlopam ([1]; Chlopam 0.0078125 μg/mL): 0.5 µg/mL
- FICI of combination with Chlopam ([1]; Chlopam 0.015625 μg/mL + labelled antibiotic at MIC of same cell): 1.0
- MIC of antibiotic in combination with Chlopam ([1]; Chlopam 0.015625 μg/mL): 0.5 µg/mL
- FICI of combination with Chlopam ([1]; Chlopam 0.25 μg/mL + labelled antibiotic at MIC of same cell): 1.0
- MIC of antibiotic in combination with Chlopam ([1]; Chlopam 0.25 μg/mL): 0.25 µg/mL
- FICI of combination with Chlopam ([1]; Chlopam 0.5 μg/mL + labelled antibiotic at MIC of same cell): 1.0
- MIC of antibiotic in combination with Chlopam ([1]; Chlopam 0.5 μg/mL): 0.016 µg/mL
- Effect of individual antibiotic combinations ([1]; Chlopam and daptomycin: 0.003901 and 0.5, 0.0078125 and 0.5, 0.015625 and 0.5, 0.25 and 0.25, 0.5 and 0.016 μg/mL): additive effect
- FICI of combination with Ramizol ([1]; Ramizol 0.015625 μg/mL + labelled antibiotic at MIC of same cell): 1.0
- MIC of antibiotic in combination with Ramizol ([1]; Ramizol 0.015625 μg/mL): 0.5 µg/mL
- FICI of combination with Ramizol ([1]; Ramizol 0.03125 μg/mL + labelled antibiotic at MIC of same cell): 1.0
- MIC of antibiotic in combination with Ramizol ([1]; Ramizol 0.03125 μg/mL): 0.5 µg/mL
- FICI of combination with Ramizol ([1]; Ramizol 0.0625 μg/mL + labelled antibiotic at MIC of same cell): 1.0
- MIC of antibiotic in combination with Ramizol ([1]; Ramizol 0.0625 μg/mL): 0.5 µg/mL
- FICI of combination with Ramizol ([1]; Ramizol 0.125 μg/mL + labelled antibiotic at MIC of same cell): 1.0
- MIC of antibiotic in combination with Ramizol ([1]; Ramizol 0.125 μg/mL): 0.5 µg/mL
- FICI of combination with Ramizol ([1]; Ramizol 4 μg/mL + labelled antibiotic at MIC of same cell): 1.0
- MIC of antibiotic in combination with Ramizol ([1]; Ramizol 4 μg/mL): 0.016 µg/mL
- Effect of individual antibiotic combinations ([1]; Ramizol and daptomycin: 0.015625 and 0.5, 0.03125 and 0.5, 0.0625 and 0.5, 0.125 and 0.5, 2 and 0.25, 2 and 0.125, 2 and 0.063, 2 and 0.031, 4 and 0.016 μg/mL): additive effect
- MIC ([1]; ATCC29213, Table 4, checkerboard series with Chlopam): 0.5 µg/mL
- MIC ([1]; ATCC29213, Table 7, checkerboard series with Ramizol): 0.5 µg/mL
- mean FICI of combination with Chlopam ([1]; labelled antibiotic + Chlopam, mean of all pairwise combinations): 1.1
- Effect of the combinations with Ramizol (by mean FICI) ([1]; labelled antibiotic + Ramizol): additive effect
- mean FICI of combination with Ramizol ([1]; labelled antibiotic + Ramizol, mean of all pairwise combinations): 1.0
- FICI of combination with Chlopam ([2]; Chlopam 0.001953 μg/mL + labelled antibiotic at MIC of same cell, S. aureus ATCC BAA-1717): 1.0
- MIC of antibiotic in combination with Chlopam ([2]; Chlopam 0.001953 μg/mL, S. aureus ATCC BAA-1717): 0.5 µg/mL
- FICI of combination with Chlopam ([2]; Chlopam 0.003906 μg/mL + labelled antibiotic at MIC of same cell, S. aureus ATCC BAA-1717): 1.0
- MIC of antibiotic in combination with Chlopam ([2]; Chlopam 0.003906 μg/mL, S. aureus ATCC BAA-1717): 0.5 µg/mL
- FICI of combination with Chlopam ([2]; Chlopam 0.0078125 μg/mL + labelled antibiotic at MIC of same cell, S. aureus ATCC BAA-1717): 1.0
- MIC of antibiotic in combination with Chlopam ([2]; Chlopam 0.0078125 μg/mL, S. aureus ATCC BAA-1717): 0.5 µg/mL
- FICI of combination with Chlopam ([2]; Chlopam 0.015625 μg/mL + labelled antibiotic at MIC of same cell, S. aureus ATCC BAA-1717): 1.0
- MIC of antibiotic in combination with Chlopam ([2]; Chlopam 0.015625 μg/mL, S. aureus ATCC BAA-1717): 0.5 µg/mL
- FICI of combination with Chlopam ([2]; Chlopam 0.5 μg/mL + labelled antibiotic at MIC of same line, S. aureus ATCC BAA-1717): 1.0
- MIC of antibiotic in combination with Chlopam ([2]; Chlopam 0.5 μg/mL, S. aureus ATCC BAA-1717): 0.016 µg/mL
- Effect of individual antibiotic combinations ([2]; Chlopam and daptomycin: 0.001953 and 0.5, 0.003901 and 0.5, 0.0078125 and 0.5, 0.015625 and 0.5, 0.5 and 0.016 μg/mL): additive effect
- FICI of combination with Ramizol ([2]; Ramizol 0.015625 μg/mL + labelled antibiotic at MIC of same cell, S. aureus ATCC BAA-1717): 1.0
- MIC of antibiotic in combination with Ramizol ([2]; Ramizol 0.015625 μg/mL, S. aureus ATCC BAA-1717): 0.5 µg/mL
- FICI of combination with Ramizol ([2]; Ramizol 0.03125 μg/mL + labelled antibiotic at MIC of same cell, S. aureus ATCC BAA-1717): 1.0
- MIC of antibiotic in combination with Ramizol ([2]; Ramizol 0.03125 μg/mL, S. aureus ATCC BAA-1717): 0.5 µg/mL
- FICI of combination with Ramizol ([2]; Ramizol 0.0625 μg/mL + labelled antibiotic at MIC of same cell, S. aureus ATCC BAA-1717): 1.0
- MIC of antibiotic in combination with Ramizol ([2]; Ramizol 0.0625 μg/mL, S. aureus ATCC BAA-1717): 0.5 µg/mL
- FICI of combination with Ramizol ([2]; Ramizol 0.125 μg/mL + labelled antibiotic at MIC of same line, S. aureus ATCC BAA-1717): 1.0
- MIC of antibiotic in combination with Ramizol ([2]; Ramizol 0.125 μg/mL, S. aureus ATCC BAA-1717): 0.5 µg/mL
- FICI of combination with Ramizol ([2]; Ramizol 2 μg/mL + labelled antibiotic at MIC of same line, S. aureus ATCC BAA-1717): 1.0
- MIC of antibiotic in combination with Ramizol ([2]; Ramizol 2 μg/mL, S. aureus ATCC BAA-1717): 0.25 µg/mL
- FICI of combination with Ramizol ([2]; Ramizol 4 μg/mL + labelled antibiotic at MIC of same cell, S. aureus ATCC BAA-1717): 1.0
- MIC of antibiotic in combination with Ramizol ([2]; Ramizol 4 μg/mL, S. aureus ATCC BAA-1717): 0.016 µg/mL
- Effect of individual antibiotic combinations ([2]; Ramizol and daptomycin: 0.015625 and 0.5, 0.03125 and 0.5, 0.0625 and 0.5, 0.125 and 0.5, 2 and 0.25, 4 and 0.016 μg/mL): additive effect
- MIC ([2]; Staphylococcus aureus, ATCC BAA-1717 / BAA-1717, Table 4, checkerboard series with Chlopam, S. aureus ATCC BAA-1717, read-out: MIC of antibiotic alone): 0.5 µg/mL
- MIC of antibiotic alone ([2]; Table 7, checkerboard series with Ramizol, S. aureus ATCC BAA-1717): 0.5 µg/mL
- mean FICI of combination with Chlopam ([2]; labelled antibiotic + Chlopam, mean of all pairwise combinations, S. aureus ATCC BAA-1717): 1.2
- mean FICI of combination with Ramizol ([2]; labelled antibiotic + Ramizol, mean of all pairwise combinations, S. aureus ATCC BAA-1717): 1.1
